According to paper PMC12603070, “A high-throughput screening approach to discover potential colorectal cancer chemotherapeutics: repurposing drugs to identify novel disruptors of 14-3-3 proteins” (Cell Death & Disease, 2025):
Where two headings read alike, the source gives them in different places.

Experiments:
HT-29 cells = assay: Hoechst/propidium iodide cell death assay in HT-29; type: cell-based, human; conditions: for %Cell death HT-29: time not given; for cytotoxicity at 20 µM: Homo sapiens
From the text: (§1) A high-content imaging system (PerkinElmer; Operetta CLS), was used to quantify cell death and apoptosis by calculating the number of propidium iodide-positive cells relative to Hoechst-positive cells, and the number of Annexin V-positive cells relative to Hoechst-positive cells, respectively.

Caco-2 cells = type: cell-based
From the text: as §1

His-14-3-3ζ = biological target: T1, His-14-3-3ζ (Homo sapiens, UniProt P63104); assay: Surface plasmon resonance (SPR) on immobilized His-14-3-3ζ; type: binding; conditions: for kd: SPR dissociation rate; for BI ([Signal (RU)]): SPR fit parameter, per curve; for kon: pH 7.8, SPR association rate, read-out: ka
T1 construct: made in house; host or cells: Escherichia coli BL21 LOBSTR-RIL
T1 sequence (P63104 1-245): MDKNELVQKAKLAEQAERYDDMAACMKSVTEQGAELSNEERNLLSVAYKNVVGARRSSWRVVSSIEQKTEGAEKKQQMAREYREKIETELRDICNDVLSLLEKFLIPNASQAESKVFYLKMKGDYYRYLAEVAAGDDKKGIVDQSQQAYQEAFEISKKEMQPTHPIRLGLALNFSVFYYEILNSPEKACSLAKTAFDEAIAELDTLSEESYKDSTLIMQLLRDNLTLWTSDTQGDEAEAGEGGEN
Description: The published protocol of Higuchi & Ottmann as followed with modifications to express 14-3-3ζ [44]. Escherichia coli BL21 LOBSTR-RIL cells were transformed with a plasmid encoding His-14-3-3ζ. The transformed cells were grown in TB medium containing appropriate antibiotic at 37 °C with shaking at 200 rpm until the culture reached an optical density of 0.6–0.8 at 600 nm (OD600). Protein expression was induced by the addition of isopropyl β-D-1-thiogalactopyranoside to a final concentration of 0.4 mM. Subsequently, the temperature was decreased to 16 °C and the culture incubated for another 16 h. Cells were harvested by centrifugation at 7000 × g for 20 min at 21 °C. The supernatant was discarded, and the cell pellet containing 14-3-3ζ was mixed and resuspended in lysis buffer (50 mM Tris, pH 7.80), 500 mM NaCl, 5 mM imidazole, 5% glycerol, 1 mM PMSF & 1 mM Benzamidine. Cells were lysed by sonication on ice using a probe sonicator (20 cycles of 10 s on, 20 s off, amplitude 70%). The lysate was centrifuged at 30,000 × g for 30 min at 4 °C to remove cell debris. The supernatant was collected for further purification. The 14-3-3ζ was isolated from the lysate by affinity chromatography (Ni-NTA beads, Qiagen). For further purification, the eluant was subjected to size exclusion chromatography using a Superdex 75 gel filtration column (HiLoad 16/600, GE Healthcare), pre-equilibrated with SEC buffer (20 mM Tris, pH 7.5, 150 mM NaCl, 1 mM TCEP). The protein solution was concentrated by ultrafiltration, flash frozen, and stored at −80 °C.
The general protocol for evaluating 14-3-3ζ was adapted from Hartman et al. and modified for our instrument and sensors. The SPR experiments were performed using a Open surface plasmon resonance instrument (OpenSPR^TM, Nicoya, Kitchener-Waterloo, Canada), and high sensitivity-nitrilotriacetic acid (HS-NTA) sensors. The sensor chip surface was first activated with 40 mM of NiCl2 at a flow rate of 20 μL/min using 20 mM HEPES pH 7.8, 150 mM NaCl and 1% DMSO as the running buffer. All running buffers were filtered and degassed prior to use. 100 μg/mL His-14-3-3ζ protein in 20 mM HEPES pH 7.8, 150 mM NaCl and 1% DMSO was injected at 8 μL/min flow rate for 800 s contact time and immobilized until the instrument registered 2900–3500 RU (activation and protein immobalization spectrograms are provided as Supplementary Fig. 10). Drugs were dissolved in DMSO and were diluted with 20 mM HEPES pH 7.8, 150 mM NaCl (final DMSO concentration of 1% v/v) and were injected at a flow rate of 50 μL/min. Single-cycle kinetics were applied for KD evaluation and binding affinity using TraceDrawer v.1.8.1 (Ridgeview Instruments AB).

[1] = system: BAD translocation to mitochondria in Caco-2 and HT-29 cells; assay: Confocal imaging of BAD-mCitrine translocation to mitochondria in CRC cells; type: cell-based, human; conditions: 2 µM, 24 h post-treatment
Description: To visualize BAD translocation, 35 mm glass-bottom dishes (ibidi, Gräfelfing, Germany; #81158) were coated with 0.1 mg/mL Poly-D-lysine hydrobromide for 2 h at 37 °C. After coating, dishes were washed twice with sterilized water. Subsequently, cells transfected with BAD-mCitrine were seeded at a density of 20,000 cells per dish and incubated for 24 h to allow for cell attachment. For live-cell imaging, cells were then incubated for 1 h with the mitochondrial membrane potential dye tetramethylrhodamine ethyl ester (TMRE, Invitrogen; #T668) at a final concentration of 100 nM, according to the manufacturer’s instructions. Images were acquired on a Zeiss (Oberkochen, Germany) LSM-900 Airyscan inverted confocal microscope equipped with an environmental incubation system, laser lines including 488 and 561 nm, and an oil immersion 60×/1.40 Plan achromat objective. The signal from the YFP fluorophore (ex. 488 nm, det. 525–542 nm) and the TMRE (ex. 561 nm, det. 600–700 nm) were collected in super-resolution mode. The cell viability dye, DRAQ (BioLegend, California, USA; #424101), was added to the medium at a 1:1000 dilution from the commercial stock and incubated at room temperature for 30 min prior to live-cell imaging. To quantify the colocalization of BAD-mCitrine and the mitochondria labeled with the TMRE, the JACoP plugin in ImageJ was employed. A correlation analysis was performed based on Pearson’s coefficient between pixel-gray values for the two channels.

[2] = HT-29, 24 h, 20 µM, 24 h, read-out: Percentage of cell death % 24h HT-29
[3] = HT-29, 48 h, HT-29, 48h, 20 μM, read-out: Percentage of cell death % 48h, HT-29
[4] = SPR fit, value repeated per curve
[5] = SPR, immobilized His-14-3-3ζ, single-cycle kinetics, 1% DMSO

CCCCCCCCc1ccc(CCC(N)(CO)CO)cc1 [Fingolimod (FTY720), Fingolimod]
%Cell death HT-29 (HT-29 cells; HT-29): 69.1%
cytotoxicity at 20 µM (HT-29 cells; [2]): 13.5%
cytotoxicity at 20 µM (HT-29 cells; [3]): 69.1%
%Cell death Caco-2 (Caco-2 cells; Caco-2): 67.9%
Bmax ([Signal (RU)]) (His-14-3-3ζ; SPR curve at 0.0009 mM ligand): 2.87 RU
Bmax ([Signal (RU)]) (His-14-3-3ζ; SPR curve at 0.005 mM ligand): 227.4 RU
Bmax ([Signal (RU)]) (His-14-3-3ζ; SPR curve at 0.02 mM ligand): 342.32 RU
kd (His-14-3-3ζ; value repeated per curve): 0.00856 s⁻¹
BI ([Signal (RU)]) (His-14-3-3ζ): 0.1 RU
Kd (His-14-3-3ζ; [4]): 10600 nM
Kd (His-14-3-3ζ; [5]): 10600 nM
kon (His-14-3-3ζ; value repeated per curve): 807 M⁻¹ s⁻¹

O=C(NC1CCN(CCCCC2(C(=O)NCC(F)(F)F)c3ccccc3-c3ccccc32)CC1)c1ccccc1-c1ccc(C(F)(F)F)cc1 [Lomitapide]
%Cell death HT-29 (HT-29 cells; HT-29): 72.9%
cytotoxicity at 20 µM (HT-29 cells; [2]): 29.5%
cytotoxicity at 20 µM (HT-29 cells; [3]): 72.9%
Percentage of cell death % 24h CACO-2 (Caco-2 cells; 20 µM, 24 h): 66.0871%
Percentage of cell death % 48h, Caco-2 (Caco-2 cells; Caco-2, 48h, 20 μM): 81.7295%
%Cell death Caco-2 (Caco-2 cells; Caco-2, time not given, text says 48 h): 81.7%
Effect of Z-VAD-FMK on propidium iodide incorporation (Caco-2 cells; lomitapide-treated Caco-2 cells, 10 μM, 48 h): no effect
Bmax ([Signal (RU)]) (His-14-3-3ζ; SPR curve at 0.0009 mM ligand): 55.11 RU
Bmax ([Signal (RU)]) (His-14-3-3ζ; SPR curve at 0.003 mM ligand): 159.43 RU
Bmax ([Signal (RU)]) (His-14-3-3ζ; SPR curve at 0.01 mM ligand): 270.8 RU
Bmax ([Signal (RU)]) (His-14-3-3ζ; SPR curve at 0.02 mM ligand): 311.25 RU
kd (His-14-3-3ζ; value repeated per curve): 0.0109 s⁻¹
BI ([Signal (RU)]) (His-14-3-3ζ): 0.1 RU
Kd (His-14-3-3ζ; [4]): 858 nM
Kd (His-14-3-3ζ; SPR, immobilized 14-3-3ζ): 900 nM
Kd (His-14-3-3ζ; [5]): 890 nM
kon (His-14-3-3ζ; value repeated per curve): 12700 M⁻¹ s⁻¹
Mitochondrial translocation of BAD [1]: Mitochondrial translocation of BAD was observed

OC1(c2ccc(Cl)c(C(F)(F)F)c2)CCN(CCCC(c2ccc(F)cc2)c2ccc(F)cc2)CC1 [Penfluridol]
%Cell death HT-29 (HT-29 cells; HT-29): 92.2%
cytotoxicity at 20 µM (HT-29 cells; [2]): 77.5%
cytotoxicity at 20 µM (HT-29 cells; [3]): 92.2%
%Cell death Caco-2 (Caco-2 cells; Caco-2): 90.0%
Bmax ([Signal (RU)]) (His-14-3-3ζ; SPR curve at 0.0009 mM ligand): 99.25 RU
Bmax ([Signal (RU)]) (His-14-3-3ζ; SPR curve at 0.005 mM ligand): 72.64 RU
Bmax ([Signal (RU)]) (His-14-3-3ζ; SPR curve at 0.007 mM ligand): 80.65 RU
Bmax ([Signal (RU)]) (His-14-3-3ζ; SPR curve at 0.01 mM ligand): 100.4 RU
kd (His-14-3-3ζ; value repeated per curve): 0.00974 s⁻¹
BI ([Signal (RU)]) (His-14-3-3ζ): 0.1 RU
Kd (His-14-3-3ζ; [4]): 1350 nM
Kd (His-14-3-3ζ; [5]): 1350 nM
kon (His-14-3-3ζ; value repeated per curve): 7240 M⁻¹ s⁻¹
Mitochondrial translocation of BAD [1]: Mitochondrial translocation of BAD was observed

CC(C)(C)c1ccc(C(O)CCCN2CCC(C(O)(c3ccccc3)c3ccccc3)CC2)cc1 (stereo not shown) [Terfenadine]
%Cell death HT-29 (HT-29 cells; HT-29): 89.6%
cytotoxicity at 20 µM (HT-29 cells; [2]): 81.9%
cytotoxicity at 20 µM (HT-29 cells; [3]): 89.6%
%Cell death Caco-2 (Caco-2 cells; Caco-2): 79.7%
Bmax ([Signal (RU)]) (His-14-3-3ζ; SPR curve at 0.0009 mM ligand): 166.72 RU
Bmax ([Signal (RU)]) (His-14-3-3ζ; SPR curve at 0.005 mM ligand): 144.99 RU
Bmax ([Signal (RU)]) (His-14-3-3ζ; SPR curve at 0.007 mM ligand): 177.73 RU
Bmax ([Signal (RU)]) (His-14-3-3ζ; SPR curve at 0.01 mM ligand): 179.00 RU
kd (His-14-3-3ζ; value repeated per curve): 0.0185 s⁻¹
BI ([Signal (RU)]) (His-14-3-3ζ): 0.1 RU
Kd (His-14-3-3ζ; [4]): 2960 nM
Kd (His-14-3-3ζ; [5]): 2960 nM
kon (His-14-3-3ζ; value repeated per curve): 6260 M⁻¹ s⁻¹
Mitochondrial translocation of BAD [1]: Mitochondrial translocation of BAD was observed
